In PMC6384991, “5-Arylideneimidazolones with Amine at Position 3 as Potential Antibiotic Adjuvants against Multidrug Resistant Bacteria” (Molecules, 2019):
Where two headings read alike, the source gives them in different places. Residues, ends and D or L forms follow the SMILES beside them. *: point of attachment. βNA = c1ccc2cc(N*)ccc2c1

Tests used:
E. aerogenes CM-64 = test: MIC (microdilution) against E. aerogenes CM-64 overexpressing AcrAB-TolC; details: Klebsiella aerogenes
E. aerogenes Ea-289 = test: MIC (microdilution) against E. aerogenes Ea-289 overexpressing AcrAB-TolC, porin-deficient; details: for MIC: Klebsiella aerogenes; for increase of MIC for Ea-289 and CM-64 in comparison to Ea-298 and Ea-294: efflux overexpressing vs deficient strains
[1] = test system: E. aerogenes Ea-294, Ea-298; test: MIC (microdilution) against E. aerogenes strains devoid of AcrAB / TolC; details: Klebsiella aerogenes
[2] = test system: MDR strains of Gram-negative bacteria; design: method as in PMID 26824939; details: cited from earlier work
MRSA HEMSA 5 [3] = test: MIC reduction assay: influence on oxacillin susceptibility in MRSA; format: cell-based, S. aureus; details: MRSA HEMSA 5
Procedure: The lack of a direct antibacterial activity of arylideneimidazolone derivatives tested allowed analyzing their anti-resistance potency in combination with the β-lactam antibiotic, oxacillin. […] The potential of compounds to become antibiotic adjuvants was evaluated by comparing the drug effectiveness in the presence and absence of compounds tested, thereby, by determining activity gain parameter A (Table 5). […] Slightly lower adjuvant-like activity was determined for the imidazolone derivatives 7 and 10 (A = 8–16). The efficacy of the remaining compounds was slightly less marked, however, also significant. Although compounds tested improved noticeably the antibacterial activity of oxacillin against MRSA clinical isolate, none of them restored the activity of the antibiotic (MIC < 2 µg/mL) against this highly resistant strain.

S. aureus ATCC 25923 = test: Intrinsic antibacterial activity (MIC, microdilution) against reference S. aureus strain; format: cell-based; details: Staphylococcus aureus
Procedure: (§1) Initially, 12 arylideneimidazolone derivatives were evaluated in vitro for their intrinsic antibacterial effect against two strains of S. aureus: the reference strain S. aureus ATCC 25923 and extremely-drug resistant (XDR) MRSA HEMSA 5 clinical isolate. This step of the study was necessary for: (i) elucidation whether molecules tested are devoid of antistaphylococcal activity and thus cannot become antimicrobial agents by themselves; and (ii) determination of the concentrations of compounds suitable for the further assay on their antibiotic adjuvant potency. In addition, the antistaphylococcal efficacy of oxacillin, which was paired with compounds tested, in the following assays was also assessed (Table 3).

MRSA HEMSA 5 [4] = test: Intrinsic antibacterial activity (MIC, microdilution) against MRSA HEMSA 5; format: cell-based, S. aureus; details: for MIC: Staphylococcus aureus
Procedure: as §1

[5] = test system: AcrAB-TolC efflux pump in E. aerogenes Ea-289; test: Real-time efflux (RTE) assay with 1,2'-dNA; details: compound 100 µM; Ea-289 strain
HepG2 cells = test: Hepatotoxicity, MTS viability assay; format: cell-based; details: 1 µM; 72 h; MTS
Procedure: Determination of potential hepatotoxicity was performed with hepatoma HepG2 cells by standard colorimetric MTS procedure. Compound 9 was diluted into the cell culture media in the following concentrations: 0.1, 1, 10 and 100 μM, added to the cells and incubated for 72 h at 37 °C in the presence of 5% CO2. The cytostatic drug doxorubicin (DX) was used at 1 µM, as the reference. […] However, in comparison to the result obtained for the reference DX the hepatotoxicity potential of tested compound is moderate, as its decreased cells’ viability to ~74% of control at 10 µM, whereas DX to ~15% of control at 1 µM (Figure 10).
The HepG2 cells were seeded in 96-well plates at a concentration of 1 × 10^4 cells/well and incubated for 24 h at 37 °C in 5% CO2 atmosphere to reach 50% of confluence. Compound 9 was diluted into fresh growth medium and added to the cells at the final concentrations 0.1 μM–100 μM. The positive controls DX and CCCP were added at 1 μM and 10 μM, respectively, and the cells were incubated for 72 h. The MTS reagent (CellTiter 96® AQueous One Solution Cell Proliferation Assay, Promega, Madison, WI, USA) was added next to the each well and incubated for 4 h. The absorbance was measured next using a microplate reader (EnSpire, PerkinElmer, Waltham, MA USA) at 490 nm to determine cells’ viability.

[6] = CM64, read-out: MIC (in brackets)
[7] = EA289, read-out: MIC (in brackets)
[8] = ATCC25923, S. aureus ATCC 25923, compound alone, MH II broth, read-out: MIC Value
[9] = MRSA HEMSA 5, compound alone, MH II broth, read-out: MIC Value

Compound	melting point [°C]	MIC (E. aerogenes CM-64; CM64) [µM]	MIC (E. aerogenes Ea-289; EA289) [µM]	MIC [1] [µM]	reduction of MIC of oxacillin (MRSA HEMSA 5 [3]) [fold]	MIC (S. aureus ATCC 25923; [8]) [µM]	MIC (MRSA HEMSA 5 [4]; [9]) [µM]	also measured
CN1CCN(CCCN2C(=O)/C(=C/c3ccc(Cl)cc3)N=C2N)CC1.Cl (hydrate or solvate) [Compound 7, (Z)-5-(4-chlorobenzylidene)-2-amino-3-(3-(4-methylpiperazin-1-yl)propyl)-3H-imidazol-4(5H)-one hydrochloride]	294	–	–	–	–	–	–	–
COc1ccc(/C=C2\N=C(N)N(CCCN3CCN(C)CC3)C2=O)cc1.Cl (hydrate or solvate) [Compound 8, (Z)-5-(4-Methoxybenzylidene)-2-amino-3-(3-(4-methylpiperazin-1-yl)propyl)-3H-imidazol-4(5H)-one hydrochloride]	262	–	–	–	–	–	–	–
O=C(N[C@H](CO)[C@H](O)c1ccc([N+](=O)[O-])cc1)C(Cl)Cl [Chloramphenicol]	–	1600	3200	200	–	–	–	MIC (E. aerogenes CM-64; [6]): 512 µg/mL; MIC (E. aerogenes Ea-289; [7]): 1020 µg/mL; MIC ([1]; read-out: MIC (in brackets)): 64 µg/mL
O=C1NC(N2CCNCC2)=N/C1=C\c1ccc(-c2ccccc2)cc1 [Compound 5]	–	–	–	–	–	–	–	reduction of rifampin MIC ([2]; MDR Gram-negative bacteria): 32 fold; reduction of antibiotics MIC values ([2]; oxacillin, chloramphenicol, linezolid and clarytromycin): 8 fold
CN1CCN(C2=N/C(=C\c3ccc(Cl)cc3)C(=O)N2)CC1 [Compound 6, (Z)-5-(4-chlorobenzylidene)-2-(4-methylpiperazin-1-yl)-3H-imidazol-4(5H)-one]	–	–	–	–	8	–	–	MIC (S. aureus ATCC 25923; ATCC25923, read-out: MIC Value): 2000 µM; MIC (MRSA HEMSA 5 [4]; MRSA, read-out: MIC Value): 1000 µM
CN1CCN(CCCN2C(=O)/C(=C/c3ccc(Cl)cc3)N=C2N)CC1.Cl [Compound 7, (Z)-5-(4-chlorobenzylidene)-2-amino-3-(3-(4-methylpiperazin-1-yl)propyl)-3H-imidazol-4(5H)-one hydrochloride]	–	–	–	–	16	500 to 1000	1000	–
COc1ccc(/C=C2\N=C(N)N(CCCN3CCN(C)CC3)C2=O)cc1.Cl [Compound 8, (Z)-5-(4-Methoxybenzylidene)-2-amino-3-(3-(4-methylpiperazin-1-yl)propyl)-3H-imidazol-4(5H)-one hydrochloride]	–	–	–	–	8	> 2000	> 2000	–
CN1CCN(CCCN2C(=O)/C(=C/c3cc4ccccc4c4ccccc34)N=C2N)CC1.Cl [Compound 10, (Z)-2-Amino-3-(3-(4-methylpiperazin-1-yl)propyl)-5-(phenanthren-9-ylmethylene)-3H-imidazol-4(5H)-one hydrochloride]	266 to 268	1000	1000	500	–	> 125	> 125	Inhibitory efficiency (IE) of 1,2'-dNA efflux [5]: 60%
CN1CCN(CCCN2C(=O)/C(=C/c3c4ccccc4cc4ccccc34)N=C2N)CC1.Cl [Compound 11, (Z)-2-Amino-5-(anthracen-10-ylmethylene)-3-(3-(4-methylpiperazin-1-yl)propyl)-3H-imidazol-4(5H)-one hydrochloride]	246 to 248	> 2000	> 2000	500	–	500	500	increase of MIC for Ea-289 and CM-64 in comparison to Ea-298 and Ea-294 (E. aerogenes Ea-289): ≥ 4 fold; Inhibitory efficiency (IE) of 1,2'-dNA efflux [5]: 37%
CN1CCN(CCCN2C(=O)/C(=C/c3ccc(Oc4ccccc4)cc3)N=C2N)CC1 [Compound 12, (Z)-5-(4-Phenoxybenzylidene)-2-amino-3-(3-(4-methylpiperazin-1-yl)propyl)-3H-imidazol-4(5H)-one]	220 to 230	2000	2000	1000	8	–	–	MIC (S. aureus ATCC 25923; ATCC25923, read-out: MIC Value): 250 µM; MIC (MRSA HEMSA 5 [4]; MRSA, read-out: MIC Value): 250 to 500 µM; Inhibitory efficiency (IE) of 1,2'-dNA efflux [5]: 64%
CN1CCN(CCCN2C(=O)/C(=C/c3cccc4ccccc34)N=C2N)CC1.Cl [Compound 15, (Z)-2-Amino-3-(3-(4-methylpiperazin-1-yl)propyl)-5-(naphthalen-1-ylmethylene)-3H-imidazol-4(5H)-one hydrochloride]	187 to 191	–	–	–	–	1000	1000 to 2000	–
Cl.NC1=N/C(=C\c2c3ccccc3cc3ccccc23)C(=O)N1CCCN1CCOCC1 [Compound 16, (Z)-2-Amino-5-(anthracen-10-ylmethylene)-3-(3-morpholinopropyl)-3H-imidazol-4(5H)-one hydrochloride]	244 to 246	> 2000	> 2000	2000	–	> 125	> 125	Inhibitory efficiency (IE) of 1,2'-dNA efflux [5]: 44%
Cl.NC1=N/C(=C\c2cccc(Oc3ccccc3)c2)C(=O)N1CCCN1CCOCC1 [Compound 17, (Z)-5-(3-phenoxybenzylidene)-2-amino-3-(3-morpholinopropyl)-3H-imidazol-4(5H)-one hydrochloride]	227 to 230	> 2000	> 2000	500	2	250	250	increase of MIC for Ea-289 and CM-64 in comparison to Ea-298 and Ea-294 (E. aerogenes Ea-289): ≥ 4 fold; Inhibitory efficiency (IE) of 1,2'-dNA efflux [5]: 61%
COc1cccc2c1C(=O)c1c(O)c3c(c(O)c1C2=O)C[C@@](O)(C(=O)CO)C[C@@H]3O[C@H]1C[C@H](N)[C@H](O)[C@H](C)O1 [DX, doxorubicin, reference compound]	–	–	–	–	–	–	–	HepG2 cells' viability (HepG2 cells): ~ 15 % of control
C[C@H]1c2cccc(O)c2C(=O)C2=C(O)[C@]3(O)C(=O)C(C(N)=O)=C(O)[C@@H](N(C)C)[C@@H]3[C@@H](O)[C@@H]21 [Doxycycline]	–	72	18	5	–	–	–	MIC (E. aerogenes CM-64; [6]): 32 µg/mL; MIC (E. aerogenes Ea-289; [7]): 8 µg/mL; MIC ([1]; read-out: MIC (in brackets)): 2 µg/mL
CC[C@H]1OC(=O)[C@H](C)[C@@H](O[C@H]2C[C@@](C)(OC)[C@@H](O)[C@H](C)O2)[C@H](C)[C@@H](O[C@@H]2O[C@H](C)C[C@H](N(C)C)[C@H]2O)[C@](C)(O)C[C@@H](C)C(=O)[C@H](C)[C@@H](O)[C@]1(C)O [Erythromycin]	–	700	350	5	–	–	–	MIC (E. aerogenes CM-64; [6]): 512 µg/mL; MIC (E. aerogenes Ea-289; [7]): 256 µg/mL; MIC ([1]; read-out: MIC (in brackets)): 4 µg/mL
CCn1cc(C(=O)O)c(=O)c2cc(F)c(N3CCNCC3)cc21 [Norfloxacin, norfloxacin]	–	6	200	50	–	–	–	MIC (E. aerogenes CM-64; [6]): 2 µg/mL; MIC (E. aerogenes Ea-289; [7]): 64 µg/mL; MIC ([1]; read-out: MIC (in brackets)): 16 µg/mL
Cc1onc(-c2ccccc2)c1C(=O)N[C@@H]1C(=O)N2[C@@H]1SC(C)(C)[C@@H]2C(=O)O [Oxacillin, reference compound]	–	–	–	–	–	0.59	1210	MIC (S. aureus ATCC 25923; ATCC25923, S. aureus ATCC 25923, read-out: MIC Value (in brackets)): 0.25 µg/mL; MIC (MRSA HEMSA 5 [4]; MRSA HEMSA 5, read-out: MIC Value (in brackets)): 512 µg/mL
NC(N)=NCCC[C@H](NC(=O)[C@@H](N)Cc1ccccc1)C(=O)Nc1ccc2ccccc2c1 [PaβN] (H-Phe-Arg-βNA)	–	500	500	125	–	–	–	–
(Z)-2-Amino-5-(biphen-4-ylmethylene)-3-(2-(4-methylpiperazin-1-yl)ethyl)-3H-imidazol-4(5H)-one hydrochloride [Compound 14]	–	–	–	–	8	–	–	MIC Value (MRSA HEMSA 5 [4]; MRSA HEMSA 5, compound alone, MH II broth): 250 µM
